Experimental data from the supplement of paper PMC4862054.

Key:
Assay in all cases: normalised viability (% of control), CellTiter-Blue; higher = more viable cells (about 100 = DMSO control)
Settings in all cases: incubation time: 72 h
[1] = test system: HCC1937
Summary of the method: (§1)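 Plates were quality-checked by Z'-factor and normalised to vehicle (100) and a positive kill control (0). The underlying assay incubated breast cancer cell lines for 72 h on 384-well plates with compound, then added 2.5 µl CellTiter-Blue for 2 h at 37 °C and read at 560/590 nm. The value is normalised viability at a single listed concentration of the series.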

[2] = test system: CAL-85-1
Summary of the method: as §1

[3] = test system: HCC1599
Summary of the method: as §1

[4] = test system: MDA-MB-436
Summary of the method: as §1

[5] = test system: DU-4475
Summary of the method: as §1

[6] = test system: MDA-MB-468
Summary of the method: as §1

[7] = test system: SK-BR-3
Summary of the method: as §1

[8] = test system: HDQ-P1
Summary of the method: as §1

[9] = test system: HCC1143
Summary of the method: as §1

[10] = test system: MDA-MB-453
Summary of the method: as §1

[11] = test system: MFM-223
Summary of the method: as §1

[12] = test system: CAL-148
Summary of the method: as §1

[13] = test system: Hs578T
Summary of the method: as §1

[14] = test system: CAL-51
Summary of the method: as §1

[15] = test system: BT-549
Summary of the method: as §1

CO[C@H]1C[C@@H]2CC[C@@H](C)[C@@](O)(O2)C(=O)C(=O)N2CCCC[C@H]2C(=O)O[C@H]([C@H](C)C[C@@H]2CC[C@@H](OP(C)(C)=O)[C@H](OC)C2)CC(=O)[C@H](C)/C=C(\C)[C@@H](O)[C@@H](OC)C(=O)[C@H](C)C[C@H](C)/C=C/C=C/C=C/1C [Ridaforolimus]
normalised viability [%]
Settings	0.3 nM	1 nM	3 nM	10 nM	100 nM	1000 nM
[1]	–	52.4	–	–	62.5	69.5
[2]	68	–	57.1	59.5	–	–
[3]	–	105	–	–	98.7	72.5
[4]	–	81.3	–	–	94.5	79
[5]	100	–	61.7	57.9	–	–
[6]	–	66.4	–	–	59.3	60.4
[7]	–	79.8	–	–	51	42.4
[8]	96.2	–	90.1	74.4	–	–
[9]	–	71.5	–	–	56.1	56.8
[10]	85.4	–	30	24.5	–	–
[11]	–	56.3	–	–	45	43.3
[12]	79.9	–	43.8	36.6	–	–
[13]	–	62.9	–	–	57.2	54.3
[14]	90.1	–	56.2	38.6	–	–
[15]	–	62.3	–	–	62.9	56.8

COc1cc2/c(=N/c3ccc(Br)cc3F)nc[nH]c2cc1OCC1CCN(C)CC1 [Vandetanib]
normalised viability [%]
Settings	3 nM	10 nM	30 nM	100 nM	1000 nM	10000 nM
[1]	–	29.7	–	–	105	59.7
[2]	105	–	109	101	–	–
[3]	–	88.7	–	–	107	58.5
[4]	–	76.4	–	–	35.7	30.1
[5]	108	–	102	106	–	–
[6]	–	89.8	–	–	74.3	28
[7]	–	100	–	–	96.4	14.3
[8]	76.8	–	72.1	59.3	–	–
[9]	–	122	–	–	99.7	68.5
[10]	89.6	–	94.4	91.4	–	–
[11]	–	100	–	–	61.6	30.6
[12]	96.2	–	93.2	92.8	–	–
[13]	–	108	–	–	92.8	50
[14]	105	–	107	92.3	–	–
[15]	–	102	–	–	85.2	22.4
